Each structure is given as a SMILES string.

The target of this assay is T1, TLR7/NFKb HEK cells (Homo sapiens, UniProt Q9NYK1).
T1 construct: expressed in transfected cells; host or cells: HEK cells (TLR7/NFKb reporter line)
T1 sequence (Q9NYK1 27-1049): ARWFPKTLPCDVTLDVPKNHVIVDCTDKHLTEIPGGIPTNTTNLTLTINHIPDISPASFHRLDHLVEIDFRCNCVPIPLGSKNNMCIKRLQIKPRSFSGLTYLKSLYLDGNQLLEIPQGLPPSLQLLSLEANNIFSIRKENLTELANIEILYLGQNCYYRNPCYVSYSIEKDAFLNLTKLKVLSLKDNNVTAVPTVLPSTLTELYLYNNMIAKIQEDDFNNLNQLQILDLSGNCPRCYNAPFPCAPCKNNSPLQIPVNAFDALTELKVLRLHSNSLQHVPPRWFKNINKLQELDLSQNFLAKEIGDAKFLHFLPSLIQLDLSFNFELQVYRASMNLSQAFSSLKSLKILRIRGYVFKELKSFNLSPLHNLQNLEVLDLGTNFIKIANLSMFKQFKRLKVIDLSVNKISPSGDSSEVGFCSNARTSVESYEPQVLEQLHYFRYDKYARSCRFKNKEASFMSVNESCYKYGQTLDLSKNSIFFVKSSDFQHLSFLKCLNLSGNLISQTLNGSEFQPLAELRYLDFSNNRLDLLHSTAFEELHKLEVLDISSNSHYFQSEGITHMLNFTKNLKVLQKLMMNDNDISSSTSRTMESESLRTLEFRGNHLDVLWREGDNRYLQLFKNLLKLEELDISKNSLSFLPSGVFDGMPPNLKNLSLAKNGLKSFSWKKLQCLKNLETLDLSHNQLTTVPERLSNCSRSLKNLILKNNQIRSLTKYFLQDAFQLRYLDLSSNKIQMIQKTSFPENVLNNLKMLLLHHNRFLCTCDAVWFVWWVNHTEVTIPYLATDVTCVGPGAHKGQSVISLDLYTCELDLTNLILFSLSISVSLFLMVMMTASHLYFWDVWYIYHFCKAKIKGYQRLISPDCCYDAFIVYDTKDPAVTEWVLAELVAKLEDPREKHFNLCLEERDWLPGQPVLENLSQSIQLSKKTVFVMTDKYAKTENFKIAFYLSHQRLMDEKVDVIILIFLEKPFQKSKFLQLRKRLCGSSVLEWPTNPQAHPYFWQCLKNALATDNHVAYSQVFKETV
Kind of assay: HEK Cell Assay (TLR7/NFKb reporter, Steady-Glo luciferase readout). The class given is cell-based. The following applies: 30 min compound preincubation, then R*48 agonist for 5 hours, read-out: Potency. An outline of the steps:
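Steady-Glo luminescence after 5 h stimulation with R*48 agonist, following 30 min compound preincubation. Assay run in HEK cells carrying a TLR7/NFKb luciferase reporter, plated at 5000 cells/well and grown 24 h at 37° C (10% CO2) before treatment.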
As to `CCN(CC)CCNCC1CCN(c2ccnc3cc(C(F)(F)F)ccc23)CC1` [Compound 376, N,N-Diethyl-N′-[1-(7-trifluoromethyl-quinolin-4-yl)-piperidin-4-ylmethyl]-ethane-1,2-diamine], the IC50 is 1000 to 10000 nM.
Consider `O=C(NC1CCN(CC2CC2)C1)C1CCN(c2ccc(C(F)(F)F)c3ncccc23)CC1` (single isomer, unassigned) [Compound 445], for which the IC50 is below 1000 nM.
Next, `O=C(CN1CCOCC1)N[C@H]1C[C@@H](C2CC2)CN(c2ccc(C(F)(F)F)c3ncccc23)C1` (relative stereo) [Compound 336, cis-N-[5-cyclopropyl-1-[8-(trifluoromethyl)quinolin-5-yl]piperidin-3-yl]-2-(morpholin-4-yl)acetamide]: above 10000 nM; `N#Cc1ccc(N2C[C@H](NC(=O)CC3CCC(F)(F)CC3)C[C@H](C(F)(F)F)C2)c2cccnc12` [Compound 584, N-[(3R,5S)-1-(8-Cyano-quinolin-5-yl)-5-trifluoromethyl-piperidin-3-yl]-2-(4,4-difluoro-cyclohexyl)-acetamide]: below 1000 nM; `CC(C(=O)N[C@@H]1C[C@H](C)CN(c2ccc(C(F)F)c3ncccc23)C1)N1CC(O)C1` (stereo partly drawn) [Compound 309, N-[(3R,5S)-1-[8-(difluoromethyl)quinolin-5-yl]-5-methylpiperidin-3-yl]-2-(3-hydroxyazetidin-1-yl)propanamide]: below 1000 nM.
For `CCN(CC)CCNCC1CCN(c2cc(C)nc3cc(F)ccc23)CC1` [Compound 386, N,N-Diethyl-N′-[1-(7-fluoro-2-methyl-quinolin-4-yl)-piperidin-4-ylmethyl]-ethane-1,2-diamine] the value was 1000 to 10000 nM.
For the compound `C[C@H]1C[C@@H](NC(=O)C(N)C(F)(F)F)CN(c2ccc(C(F)F)c3ncccc23)C1` (single isomer, unassigned) [Compound 207], the IC50 is 1000 to 10000 nM.
Consider `NC1CN(c2ccc(C(F)(F)F)c3ncccc23)CC(F)(F)C1` (stereo not shown) [Compound 510, 5,5-Difluoro-1-(8-trifluoromethyl-quinolin-5-yl)-piperidin-3-ylamine], for which the IC50 is below 1000 nM.
As for `CC(C(=O)N[C@@H]1C[C@H](C)CN(c2ccc(C(F)F)c3ncccc23)C1)N1CCC(O)CC1` (stereo partly drawn) [Compound 313, N-[(3R,5S)-1-[8-(difluoromethyl)quinolin-5-yl]-5-methylpiperidin-3-yl]-2-(4-hydroxypiperidin-1-yl)propanamide], the IC50 is below 1000 nM.
In the case of `CN1CCCC1C(=O)NCC1CCN(c2ccnc3nccnc23)CC1` (stereo not shown) [Compound 411, 1-Methyl-pyrrolidine-2-carboxylic acid (1-pyrido[2,3-b]pyrazin-8-yl-piperidin-4-ylmethyl)-amide], the IC50 was 1000 to 10000 nM.
Next, `C[C@@H]1C[C@H](C(=O)NCC2CCN(C)CC2)CN(c2ccc(C(F)(F)F)c3ncccc23)C1` (relative stereo) [Compound 547, cis-5-Methyl-1-(8-trifluoromethyl-quinolin-5-yl)-piperidine-3-carboxylic Acid (1-methyl-piperidin-4-ylmethyl)-amide]: below 1000 nM.
Take `CC1CC(C(=O)NCC2CCN(C)CC2)CN(c2ccc(C#N)c3nccnc23)C1` (stereo not shown) [Compound 539, 1-(8-Cyano-quinoxalin-5-yl)-5-methyl-piperidine-3-carboxylic acid (1-methyl-piperidin-4-ylmethyl)-amide]: the IC50 is below 1000 nM.
For the compound `C[C@H]1C[C@@H](NC(=O)CC(O)C(C)(C)C)CN(c2ccc(C#N)c3nccnc23)C1` (single isomer, unassigned) [Compound 147], the IC50 was below 1000 nM.
In the case of `N#Cc1ccc(N2CC(NC3CCC(O)CC3)CC(C(F)(F)F)C2)c2nccnc12` (single isomer, unassigned) [Compound 91, cis,cis-8-(3-((4-hydroxycyclohexyl)amino)-5-(trifluoromethyl)piperidin-1-yl)quinoxaline-5-carbonitrile], the IC50 was below 1000 nM.
Consider `CCC(C)CC(=O)N[C@@H]1C[C@H](C)CN(c2ccnc3nccnc23)C1` (single isomer, unassigned) [Compound 152], for which the IC50 was 1000 to 10000 nM.
Regarding `C[C@H]1C[C@@H](NC(=O)CC2CCN(CC(F)F)CC2)CN(c2ccc(C#N)c3nccnc23)C1` [Compound 234, N-[(3R,5S)-1-(8-cyanoquinoxalin-5-yl)-5-methylpiperidin-3-yl]-2-[1-(2,2-difluoroethyl)piperidin-4-yl]acetamide], the IC50 was below 1000 nM.
Turning to `Cc1ncc(N2C[C@@H](C)C[C@@H](NC(=O)CC3(N)CCCCC3)C2)c2cccnc12` [Compound 563, 2-(1-Amino-cyclohexyl)-N-[(3R,5S)-5-methyl-1-(8-methyl-[1,7]naphthyridin-5-yl)-piperidin-3-yl]-acetamide], the IC50 is below 1000 nM.
For the compound `CC1CC(C(=O)NC2CCCN(C)C2)CN(c2ccc(C#N)c3nccnc23)C1` (stereo not drawn) [Compound 543, cis-1-(8-cyanoquinoxalin-5-yl)-5-methyl-N-(1-methyl-3-piperidyl) piperidine-3-carboxamide], the IC50 was below 1000 nM.
For the compound `C[C@H]1C[C@@H](NC(=O)CO)CN(c2ccc(C(F)(F)F)c3ncccc23)C1` [Compound 240, 2-hydroxy-N-[(3R,5S)-5-methyl-1-[8-(trifluoromethyl)quinolin-5-yl]piperidin-3-yl]acetamide], the IC50 is below 1000 nM.
Take `C[C@H]1C[C@@H](NC(=O)CN2CCCN(C)CC2)CN(c2ccc(C(F)F)c3nccnc23)C1` [Compound 326, N-[(3R,5S)-1-[8-(difluoromethyl)quinoxalin-5-yl]-5-methylpiperidin-3-yl]-2-(4-methyl-1,4-diazepan-1-yl)acetamide]: the IC50 was below 1000 nM.
Next, `COCCN[C@@H]1C[C@H](C)CN(c2ccc(C(F)(F)F)c3ncccc23)C1` [Compound 196, (3R,5S)—N-(2-methoxyethyl)-5-methyl-1-[8-(trifluoromethyl)quinolin-5-yl]piperidin-3-amine]: below 1000 nM; `Cc1cnc2c(N3C[C@@H](C)C[C@@H](N)C3)ccc(C#N)c2n1` [Compound 525, 8-((3R,5S)-3-Amino-5-methyl-piperidin-1-yl)-3-methyl-quinoxaline-5-carbonitrile]: below 1000 nM.
Next, `CCN(CC)CC(=O)NCC1CCN(c2ccc(C#N)c3ncccc23)CC1` [Compound 398, N-[1-(8-Cyano-quinolin-5-yl)-piperidin-4-ylmethyl]-2-diethylamino-acetamide]: below 1000 nM; `C[C@H]1C[C@@H](NC(=O)C2(N)COC2)CN(c2ccnc3nccnc23)C1` [Compound 128, 3-amino-N-[(3R,5S)-5-methyl-1-[pyrido[2,3-b]pyrazin-8-yl]piperidin-3-yl]oxetane-3-carboxamide]: above 10000 nM; `CC(C(=O)N[C@@H]1C[C@H](C)CN(c2ccc(C(F)(F)F)c3nccnc23)C1)N1CC(O)C1` (stereo partly shown) [Compound 297]: below 1000 nM.
Regarding `C[C@H]1C[C@@H](NC(=O)CNS(C)(=O)=O)CN(c2ccc(C(F)(F)F)c3ncccc23)C1` [Compound 474, 2-Methanesulfonylamino-N-[(3R,5S)-5-methyl-1-(8-trifluoromethyl-quinolin-5-yl)-piperidin-3-yl]-acetamide], the IC50 fell in the range of 1000 to 10000 nM.
Regarding `N[C@H]1C[C@@H](C2CC2)CN(c2ccc(F)c3nccnc23)C1` (relative stereo) [Compound 366, cis-5-cyclopropyl-1-(8-fluoroquinoxalin-5-yl)piperidin-3-amine], the IC50 is 1000 to 10000 nM.
Consider `C[C@H]1C[C@@H](NC2CCN(C)C2=O)CN(c2ccc(C#N)c3nccnc23)C1` (single isomer, unassigned) [Compound 125], for which the IC50 is below 1000 nM.
In the case of `CC(C(=O)N[C@@H]1C[C@H](C)CN(c2ccc(C#N)c3nccnc23)C1)N1CC(N)C1` (stereo partly drawn) [Compound 267, 2-(3-aminoazetidin-1-yl)-N-[(3R,5S)-1-(8-cyanoquinoxalin-5-yl)-5-methylpiperidin-3-yl]propanamide], the IC50 was below 1000 nM.
For `C[C@H]1C[C@@H](NC(=O)CC(C)(C)C)CN(c2ccc(C(N)=O)c3ncccc23)C1` [Compound 182, 5-[(3R,5S)-3-(3,3-dimethylbutanamido)-5-methylpiperidin-1-yl]quinoline-8-carboxamide] the value was 1000 to 10000 nM; for `C[C@@H]1CN(c2ccc(C#N)c3nccnc23)C[C@H](CN2CCC(N3CCCCC3)CC2)O1` [Compound 59, 8-((2S,6R)-2-(1,4′-bipiperidin-1′-ylmethyl)-6-methylmorpholino)quinoxaline-5-carbonitrile], below 1000 nM.

The record behind these values is patent publication US10947213B1 (Merck Patent GmbH, priority 2015, dated 2021).
